From article PMC6611794, “Development of a high-throughput strategy for discovery of potent analogues of antibiotic lysocin E” (Nature Communications, 2019)
Converted amounts (≈) assume the structure as drawn. Like-named read-outs stand apart in the source and are kept apart here. Where a SMILES comes first, the peptide text is derived from it. Bridges are numbered along the chain shown (N, C = ends). [ ]: non-standard residue; d: D form. The star is where a group is joined. Hexanoyl(3R-OH,5-Me) = CC(C)C[C@@H](O)CC(=O)*; dNMeF = CN[C@H](Cc1ccccc1)C(=O)O

Legend:
[1] = tested on: Staphylococcus aureus MSSA1
Description: Evaluation of antimicrobial spectra of peptides. The MIC assay was performed according to the Clinical and Laboratory Standards Institute protocols. The antimicrobial activities of the peptides were measured using the broth microdilution method.1 Serial dilutions of peptides were prepared in cation adjusted Müller Hinton Broth. Each dilution (100 µL) was dispensed to each well of the round-bottom plate to obtain final concentrations ranging from 64 µg/m L to 0.0075 µg/m L. Bacteria were grown at 37 °C overnight on Tryptic Soy Broth or Müller Hinton Broth agar plates. Bacterial inoculum was prepared by direct suspension of the colonies in 0.9% saline, and adjusted to obtain OD 625 0.08–0.13 using a spectrophotometer UV -1280 (Shimadzu). The resultant suspension was diluted with cation adjusted Müller Hinton Broth (1/20). The resultant mixture (10 µL) was inoculated to each well of the plates (approximately 5 ×10^4 CFU/well ), mixed, and incubated at 37 °C for 18 h. The MIC value was determined as the minimum concentration that inhibited growth of bacteria. To evaluate the antimicrobial activities of peptides in the presence of serum, 10% bovine calf serum in cation adjusted Müller Hinton Broth was used.

[2] = tested on: Staphylococcus aureus Smith ATCC 13709; format: cell-based
Description: (§1) Antimicrobial activity assay of bead-derived peptides. […]
(§2) plate was added DMSO (1 µL/well). […]
(§3) precipitation of the grown cells was examined.
(§4) Evaluation of antimicrobial spectra of peptides. The MIC assay was performed according to the Clinical and Laboratory Standards Institute protocols. The antimicrobial activities of the peptides were measured […]
(§5) Soy Broth or Müller Hinton Broth agar plates. Bacterial inoculum was prepared by direct suspension of the […]
(§6) and incubated at 37 °C for 18 h. […]
(§7) inhibited growth of bacteria.

[3] = Liposomal membrane disruption assay (carboxyfluorescein LUVs); format: biochemical
Description: Preparation of LUVs consisting of PC/PG. Carboxyfluorescein-encapsulated large unilamellar vesicles (LUVs) were prepared according to the thin-film hydration method, followed by extrusion through Nuclepore polycarbonate filters (GE Healthcare) mounted in the mini-extruder apparatus (Avanti Polar Lipids). A solution of egg yolk phosphatidylcholine (9.60 mg, 12.5 µmol) and egg yolk phosphatidylglycerol (9.78 mg, 12.5 µmol) in CHCl3 (0.505 mL) was concentrated, and dried under vacuum to form a lipid thin film. The thin film was hydrated and suspended in carboxyfluorescein-containing buffer solution [0.500 mL, 5 mM 4-(2-hydroxyethyl)-1-piperazineethanesulfonic acid (HEPES), 20 mM carboxyfluorescein, pH 7.5] by vortexing and sonication. After five -times freeze-thaw cycles, the lipid suspension was extruded 19 times through a polycarbonate filter with 0.40 µm of pore size in the diameter. The external carboxyfluorescein -containing buffer was replaced w ith a carboxyfluorescein -free buffer solution [20 mM HEPES, 1 mM ethylenediaminetetraacetic acid (EDTA), pH 7.5] through size exclusion chromatography using disposable PD-10 column (GE Healthcare). Concentration of egg yolk phosphatidylcholine was determined by using Phospholipid C-Test Wako (Fujifilm Wako Pure Chemical). The final concentration of egg yolk phosphatidylcholine was adjusted to 4.0 µM with the carboxyfluorescein-free buffer solution, and the solution was used for membrane disruption assay. […]
Membrane disruption assay. […]
to various concentrations as 5-fold serial dilutions. The solution of peptides (2 µL/well) and the carboxyfluorescein-encapsulated LUV suspension (200 µL/well) were mixed in black polystyrene flat-bottom 96-well plates. The final concentration of peptides ranged from 2970 nM to 0.950 nM. The plates were vortexed at room temperature for 30 min, and then fluorescence of carboxyfluorescein (Ex. 490 nm/Em. 517 nm) of each well was measured at room temperature on Gemini EM microplate reader. Trion X-100/H2O (5/95, 2 µL), MeOH/H2O (4/6, 2 µL), and the LUV suspension were mixed in each plate to determine 100% lysis. MeOH/H2O (4/6, 2 µL) and the LUV suspension were mixed in each plate to determine 0% lysis.
The membrane disruption activities of tested peptides (I) were normalized against 100% lysis by Triton X -100 […]
(Imax) and 0% lysis by MeOH/H2O (4/6) (I0) as following, where Ix is the fluorescence intensity (Supplementary Equation 2).
I = 100 × (Ix – I0) / (Imax – I0) (2)
The membrane-disrupting activities were evaluated as half-maximal response (EC50, nM) values by means of three replicates. Sigmoidal curve fittings were performed on R2 with drc package (Supplementary Figs S7–S9).3 Two-parameter logistic model was applied for the fitting.

MRSA4 = format: cell-based, Staphylococcus aureus; conditions: 18 h
Description: as §1, §2, §3, §4, §5, §6, §7

S. aureus = tested on: S. aureus; parameters: method as in PMID 25485686; conditions: S. aureus-infected mice; cited from earlier work
From the text: Lysocin E (1, Fig. 1a) was isolated from Lysobacter sp. as a new antibiotic and structurally determined to be a 37-membered depsipeptide (molecular weight = 1618 Da) with an N-methylated amide and ester linkages. The macrocyclic core of 12 residues contains four different non-proteinogenic D-amino acids (D-Arg-2/7, N-Me-D-Phe-5, D-Gln-9, D-Trp-10) and is appended with (R)-3-hydroxy-5-methylhexanamide. […] Screening of the additives ind ...

[4] = parameters: method as in our previous studies; conditions: ref our previous studies, cited from earlier work
From the text: (§8) Lysocin E (1, Fig. 1a) was isolated from Lysobacter sp. as a new antibiotic and structurally determined to be a 37-membered depsipeptide (molecular weight = 1618 Da) with an N-methylated amide and ester linkages. The macrocyclic core of 12 residues contains four different non-proteinogenic D-amino acids (D-Arg-2/7, N-Me-D-Phe-5, D-Gln-9, D-Trp-10) and is appended with (R)-3-hydroxy-5-methylhexanamide.

MRSA = tested on: MRSA; parameters: method as in PMID 25485686; conditions: cited from earlier work
From the text: as §8

Question: With `CC[C@H](C)[C@@H]1NC(=O)[C@@H](Cc2c[nH]c3ccccc23)NC(=O)[C@@H](CCC(N)=O)NC(=O)[C@H](CCC(=O)O)NC(=O)[C@@H](CCCNC(=N)N)NC(=O)[C@H](CC(C)C)NC(=O)[C@@H](Cc2ccccc2)N(C)C(=O)CNC(=O)[C@H](CO)NC(=O)[C@@H](CCCNC(=N)N)NC(=O)[C@@H](NC(=O)C[C@H](O)CC(C)C)[C@@H](C)OC(=O)[C@H]([C@@H](C)O)NC1=O` [Peptide 1, Lysocin E] ({Hexanoyl(3R-OH,5-Me)}-T[dR]SG[dNMeF]L[dR]E[dQ][dW]IT; ester 1-C) as the compound, how does the MIC ([1]; 10% BCS (+)) read?
Answer: 0.0625 µg/mL (≈ 0.0386 µM)

Question: What about the MIC ([1]; BCS free) of the same compound?
Answer: 2.0 µg/mL (≈ 1.24 µM)

Question: And the “decrease of MIC by adding 10% BCS” value [2]?
Answer: 64 fold

Question: And the MIC ([2]; 10% BCS (+))?
Answer: 0.0625 µg/mL (≈ 0.0386 µM)

Question: What about the MIC ([2]; ATCC 13709, 18 h) of the same compound?
Answer: 2.0 µg/mL (≈ 1.24 µM)

Question: And the EC50 ([3]; 30 min, room temperature, mean ± SD of three independent experiments, read-out: EC50 PC/PG)?
Answer: 559 nM

Question: What about the EC50 ([3]; PC/PG LUVs, 1st experiment, read-out: EC50 PC/PG 1st) of the same compound?
Answer: 527 nM

Question: And the EC50 ([3]; PC/PG LUVs, 2nd experiment, read-out: EC50 PC/PG 2nd)?
Answer: 689 nM

Question: What about the EC50 ([3]; PC/PG LUVs, 3rd experiment, read-out: EC50 PC/PG 3rd) of the same compound?
Answer: 460 nM

Question: And the MIC (MRSA4)?
Answer: 0.25 µg/mL (≈ 0.155 µM)

Question: And the ED50 (S. aureus)?
Answer: 0.5 mg/kg

Question: And the Kd ([4]; 1:1 complex with MK-4, in vitro)?
Answer: 4500 nM

Question: What about the “affinity toward ubiquinone-10” value ([4]; in vitro) of the same compound?
Answer: no affinity

Question: What about the “minimum inhibitory concentration (MIC) against MRSA” value (MRSA) of the same compound?
Answer: 4 µg/mL (≈ 2.47 µM)
